Data published in patent publication US7566712B2, “Biaryl piperazinyl-pyridine analogues” (Neurogen Corporation, priority 2003, dated 2009).

molecular target: T1, human capsaicin receptor (Homo sapiens, UniProt Q8NER1); experiment: Calcium mobilization assay, determination of antagonist activity (Example 6); type: cell-based; settings: Table II; IC50 determined as described in Example 6
T1 construct: pBK-CMV expression construct encoding the full length human capsaicin receptor; expressed in transfected cells
Outline: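 Antagonism measured as inhibition of capsaicin-evoked (final concentration = EC50, from an 8-point 1 nM–3 μM curve) Fluo-3 calcium signal in stable hVR1-HEK293 cells. Test compounds at 1–5 μM final, 0.5–6 h dark preincubation at room temperature. IC50 = concentration giving 50% reduction versus agonist-only response.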

T1 sequence (Q8NER1 whole entry): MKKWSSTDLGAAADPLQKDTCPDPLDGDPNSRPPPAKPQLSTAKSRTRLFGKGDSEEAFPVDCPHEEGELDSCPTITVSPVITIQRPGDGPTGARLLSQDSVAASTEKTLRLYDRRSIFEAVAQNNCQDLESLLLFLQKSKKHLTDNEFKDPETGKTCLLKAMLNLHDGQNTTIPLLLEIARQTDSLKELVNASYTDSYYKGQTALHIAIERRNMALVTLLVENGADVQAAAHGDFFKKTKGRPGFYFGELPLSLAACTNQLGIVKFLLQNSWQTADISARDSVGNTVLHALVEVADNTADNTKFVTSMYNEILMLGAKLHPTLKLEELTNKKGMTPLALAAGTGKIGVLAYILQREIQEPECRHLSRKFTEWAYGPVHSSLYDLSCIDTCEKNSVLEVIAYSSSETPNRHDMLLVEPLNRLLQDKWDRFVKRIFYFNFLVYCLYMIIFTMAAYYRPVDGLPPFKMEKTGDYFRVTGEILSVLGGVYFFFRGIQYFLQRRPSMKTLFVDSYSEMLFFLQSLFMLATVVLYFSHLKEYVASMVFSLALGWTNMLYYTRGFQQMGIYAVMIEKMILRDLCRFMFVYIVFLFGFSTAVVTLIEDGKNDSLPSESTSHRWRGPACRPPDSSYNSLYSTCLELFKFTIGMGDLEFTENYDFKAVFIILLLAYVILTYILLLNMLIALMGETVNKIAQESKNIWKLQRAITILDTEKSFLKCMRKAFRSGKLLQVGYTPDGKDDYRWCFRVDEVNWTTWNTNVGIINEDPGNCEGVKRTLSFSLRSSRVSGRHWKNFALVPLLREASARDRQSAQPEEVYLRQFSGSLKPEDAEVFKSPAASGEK

SMILES | IC50
COC(CN(C)c1nc(-c2ccc(F)c(Cl)c2)cc(N2CCN(c3ncccc3C(F)(F)F)CC2)n1)OC [Example 548, 4-(3-chloro-4-fluorophenyl)-N-(2,2-dimethoxyethyl)-N-methyl-6-{4-[3-(trifluoromethyl)pyridin-2-yl]piperazin-1-yl}pyrimidin-2-amine] | ≤ 1000 nM
COC[C@@H]1CCCN1c1nc(-c2ccc(F)c(Cl)c2)cc(N2CCN(c3ncccc3C(F)(F)F)CC2)n1 [Example 550, 4-(3-chloro-4-fluorophenyl)-2-[(2S)-2-(methoxymethyl)pyrrolidin-1-yl]-6-{4-[3-(trifluoromethyl)pyridin-2-yl]piperazin-1-yl}pyrimidine] | ≤ 1000 nM
COCCCOc1nc(-c2ccc(F)c(Cl)c2)cc(N2CCN(c3ncccc3C(F)(F)F)CC2)n1 [Example 555, 4-(3-chloro-4-fluorophenyl)-2-(3-methoxypropoxy)-6-{4-[3-(trifluoromethyl)pyridin-2-yl]piperazin-1-yl}pyrimidine] | ≤ 1000 nM
Fc1ccc(-c2cc(N3CCN(c4ncccc4C(F)(F)F)CC3)nc(OC3CCOCC3)n2)cc1Cl [Example 557, 4-(3-chloro-4-fluorophenyl)-2-(tetrahydro-2H-pyran-4-yloxy)-6-{4-[3-(trifluoromethyl)pyridin-2-yl]piperazin-1-yl}pyrimidane] | ≤ 1000 nM
CN1CCCC(Oc2nc(-c3ccc(F)c(Cl)c3)cc(N3CCN(c4ncccc4C(F)(F)F)CC3)n2)C1 (stereo not shown) [Example 559, 4-(3-chloro-4-fluorophenyl)-2-[(1-methylpiperidin-3-yl)oxy]-6-{4-[3-(trifluoromethyl)pyridin-2-yl]piperazin-1-yl}pyrimidine] | ≤ 1000 nM
Fc1ccc(-c2cc(N3CCN(c4ncccc4C(F)(F)F)CC3)nc(OC3CCNCC3)n2)cc1Cl [Example 561, 4-(3-chloro-4-fluorophenyl)-2-(piperidin-4-yloxy)-6-{4-[3-(trifluoromethyl)pyridin-2-yl]piperazin-1-yl}pyrimidine] | ≤ 1000 nM
CCN(CC)C1CCN(c2nc(-c3ccc(F)c(Cl)c3)cc(N3CCN(c4ncccc4C(F)(F)F)CC3)n2)CC1 [Example 563, 1-(4-(3-chloro-4-fluorophenyl)-6-{4-[3-(trifluoromethyl)pyridin-2-yl]piperazin-1-yl}pyrimidin-2-yl)-N,N-diethylpiperidin-4-amine] | ≤ 1000 nM
CN1CCC(N(C)c2nc(-c3ccc(F)c(Cl)c3)cc(N3CCN(c4ncccc4C(F)(F)F)CC3)n2)C1 (stereo not shown) [Example 564, 4-(3-chloro-4-fluorophenyl)-N-methyl-N-(1-methylpyrrolidin-3-yl)-6-{4-[3-(trifluoromethyl)pyridin-2-yl]piperazin-1-yl}pyrimidin-2-amine] | ≤ 1000 nM
CN1CCC(N(C)c2nc(-c3ccc(F)c(Cl)c3)cc(N3CCN(c4ncccc4C(F)(F)F)CC3)n2)CC1 [Example 565] | ≤ 1000 nM
CC(=O)NC1CCN(c2nc(-c3ccc(F)c(Cl)c3)cc(N3CCN(c4ncccc4C(F)(F)F)CC3)n2)C1 (stereo not shown) [Example 570, N-[1-(4-(3-chloro-4-fluorophenyl)-6-{4-[3-(trifluoromethyl)pyridin-2-yl]piperazin-1-yl}pyrimidin-2-yl)pyrrolidin-3-yl]acetamide] | ≤ 1000 nM

Second part, the compound after the results:

IC50 | SMILES
≤ 1000 nM | Fc1ccc(-c2cc(N3CCN(c4ncccc4C(F)(F)F)CC3)nc(N3CCNCC3)n2)cc1Cl [Example 546, 4-(3-chloro-4-fluorophenyl)-2-piperazin-1-yl-6-{4-[3-(trifluoromethyl)pyridin-2-yl]piperazin-1-yl}pyrimidine]
≤ 1000 nM | CCCN1CCN(c2nc(-c3ccc(F)c(Cl)c3)cc(N3CCN(c4ncccc4C(F)(F)F)CC3)n2)CC1 [Example 547, 4-(3-chloro-4-fluorophenyl)-2-(4-propylpiperazin-1-yl)-6-{4-[3-(trifluoromethyl)pyridin-2-yl]piperazin-1-yl}pyrimidine]
≤ 1000 nM | CN(CCO)c1nc(-c2ccc(F)c(Cl)c2)cc(N2CCN(c3ncccc3C(F)(F)F)CC2)n1 [Example 549, 2-[(4-(3-chloro-4-fluorophenyl)-6-{4-[3-(trifluoromethyl)pyridin-2-yl]piperazin-1-yl}pyrimidin-2-yl)(methyl)amino]ethanol]
≤ 1000 nM | O=C(O)[C@@H]1CCCN1c1nc(-c2ccc(F)c(Cl)c2)cc(N2CCN(c3ncccc3C(F)(F)F)CC2)n1 [Example 552, 1-(4-(3-chloro-4-fluorophenyl)-6-{4-[3-(trifluoromethyl)pyridin-2-yl]piperazin-1-yl}pyrimidin-2-yl)-L-proline]
≤ 1000 nM | Fc1ccc(-c2cc(N3CCN(c4ncccc4C(F)(F)F)CC3)nc(OCC3CC3)n2)cc1Cl [Example 553, 4-(3-chloro-4-fluorophenyl)-2-(cyclopropylmethoxy)-6-{4-[3-(trifluoromethyl)pyridin-2-yl]piperazin-1-yl}pyrimidine]
≤ 1000 nM | COCCOc1nc(-c2ccc(F)c(Cl)c2)cc(N2CCN(c3ncccc3C(F)(F)F)CC2)n1 [Example 554, 4-(3-chloro-4-fluorophenyl)-2-(2-methoxyethoxy)-6-{4-[3-(trifluoromethyl)pyridin-2-yl]piperazin-1-yl}pyrimidine]
≤ 1000 nM | Fc1ccc(-c2cc(N3CCN(c4ncccc4C(F)(F)F)CC3)nc(OCC3CCCO3)n2)cc1Cl (stereo not shown) [Example 556, 4-(3-chloro-4-fluorophenyl)-2-(tetrahydrofuran-2-ylmethoxy)-6-{4-[3-(trifluoromethyl)pyridin-2-yl]piperazin-1-yl}pyrimidine]
≤ 1000 nM | Fc1ccc(-c2cc(N3CCN(c4ncccc4C(F)(F)F)CC3)nc(OCCN3CCCC3)n2)cc1Cl [Example 558, 4-(3-chloro-4-fluorophenyl)-2-(2-pyrrolidin-1-ylethoxy)-6-{4-[3-(trifluoromethyl)pyridin-2-yf]piperazin-1-yl}pyrimidine]
≤ 1000 nM | Fc1ccc(-c2cc(N3CCN(c4ncccc4C(F)(F)F)CC3)nc(OCC3CCNC3)n2)cc1Cl (stereo not shown) [Example 560, 4-(3-chloro-4-fluorophenyl)-2-(pyrrolidin-3-ylmethoxy)-6-{4-(3-(trifluoromethyl)pyridin-2-yl]piperazin-1-yl}pyrimidine]
≤ 1000 nM | CN(C)C1CCN(c2nc(-c3ccc(F)c(Cl)c3)cc(N3CCN(c4ncccc4C(F)(F)F)CC3)n2)C1 (stereo not shown) [Example 562, 1-(4-(3-chloro-4-fluorophenyl)-6-{4-[3-(trifluoromethyl)pyridin-2-yl]piperazin-1-yl}pyrimidin-2-yl)-N,N-dimethylpyrrolidin-3-amine]
≤ 1000 nM | CCN(CC)CCN(C)c1nc(-c2ccc(F)c(Cl)c2)cc(N2CCN(c3ncccc3C(F)(F)F)CC2)n1 [Example 566, N-1-(4-(3-chloro-4-fluorophenyl)-6-{4-[3-(trifluoromethyl)pyridin-2-yl]piperazin-1-yl}pyrimidin-2-yl)-N-2-,N-2-diethyl-N-1-methylethane-1,2-diamine]
≤ 1000 nM | NC(=O)[C@@H]1CCCN1c1nc(-c2ccc(F)c(Cl)c2)cc(N2CCN(c3ncccc3C(F)(F)F)CC2)n1 [Example 567, 1-(4-(3-chloro-4-fluorophenyl)-6-{4-[3-(trifluoromethyl)pyridin-2-yl]piperazin-1-yl}pyrimidin-2-yl)-L-prolinamide]
≤ 1000 nM | NC1CCN(c2nc(-c3ccc(F)c(Cl)c3)cc(N3CCN(c4ncccc4C(F)(F)F)CC3)n2)C1 (stereo not shown) [Example 568, 1-(4-(3-chloro-4-fluorophenyl)-6-{4-[3-(trifluoromethyl)pyridin-2-yl]piperazin-1-yl}pyrimidin-2-yl)pyrrolidin-3-amine]
≤ 1000 nM | NC1CCN(c2nc(-c3ccc(F)c(Cl)c3)cc(N3CCN(c4ncccc4C(F)(F)F)CC3)n2)CC1 [Example 569, 1-(4-(3-chloro-4-fluorophenyl)-6-{4-[3-(trifluoromethyl)pyridin-2-yl]piperazin-1-yl}pyrimidin-2-yl)piperidin-4-amine]
≤ 1000 nM | CC(=O)NC1CCN(c2nc(-c3ccc(F)c(Cl)c3)cc(N3CCN(c4ncccc4C(F)(F)F)CC3)n2)CC1 [Example 571, N-[1-(4-(3-chloro-4-fluorophenyl)-6-{4-[3-(trifluoromethyl)pyridin-2-yl]piperazin-1-yl}pyrimidin-2-yl)piperidin-4-yl]acetamide]

same assay, conditions: determined as described in Example 6 (calcium mobilization, antagonist activity); Table II

SMILES | IC50
FC(F)(F)c1cccnc1N1CCN(c2cc(-c3ccccc3)nc(N3CCOCC3)n2)CC1 [Example 574, 4-(4-phenyl-6-{4-[3-(trifluoromethyl)pyridin-2-yl]piperazin-1-yl}pyrimidin-2-yl)morpholine] | ≤ 1000 nM
Cc1cc(-c2cc(N3CCN(c4ncccc4C(F)(F)F)CC3)nc(N3CCOCC3)n2)ccn1 [Example 575, 4-(4-(2-methylpyridin-4-yl)-6-{4-[3-(trifluoromethyl)pyridin-2-yl]piperazin-1-yl}pyrimidin-2-yl)morpholine] | ≤ 1000 nM
Cc1cc(-c2cc(N3CCN(c4ncccc4C(F)(F)F)CC3)nc(N3CCOCC3)n2)ccc1F [Example 576, 4-(4-(4-fluoro-3-methylphenyl)-6-{4-[3-(trifluoromethyl)pyridin-2-yl]piperazin-1-yl}pyrimidin-2-yl)morpholifle] | ≤ 1000 nM
CCOc1cc(-c2cc(N3CCN(c4ncccc4C(F)(F)F)CC3)nc(N3CCOCC3)n2)ccn1 [Example 577, 4-(4-(2-ethoxypyridin-4-yl)-6-{4-[3-(trifluoromethyl)pyridin-2-yl]piperazin-1-yl}pyrimidin-2-yl)morpholine] | ≤ 1000 nM

The next lines start with the values.

IC50 | SMILES
≤ 1000 nM | CS(=O)(=O)N1CCN(c2nc(-c3ccc(F)c(Cl)c3)cc(N3CCN(c4ncccc4C(F)(F)F)CC3)n2)CC1 [Example 572, 4-(3-chloro-4-fluorophenyl)-2-[4-(methylsulfonyl)piperazin-1-yl]-6-{4-[3-(trifluoromethyl)pyridin-2-yl]piperazin-1-yl)pyrimidine]
≤ 1000 nM | CCN(CC)c1nc(-c2ccc(F)c(Cl)c2)cc(N2CCN(c3ncccc3C(F)(F)F)CC2)n1 [Example 573, 4-(3-chloro-4-fluorophenyl)-N,N-diethyl-6-{4-[3-(trifluoromethyl)pyridin-2-yl]piperazin-1-yl}pyrimidin-2-amine]
